Laboratory results reported in article PMC11434840, “Discovery of Benzopyrone-Based Candidates as Potential Antimicrobial and Photochemotherapeutic Agents through Inhibition of DNA Gyrase Enzyme B: Design, Synthesis, In Vitro and In Silico Evaluation” (Pharmaceuticals, 2024).
Read-outs that look alike come from different tables or passages of the source.

Key:
[1] = system: Candida albicans ATCC 10231; assay: Antimicrobial agar cup-plate assay, C. albicans; type: cell-based; set-up: key to Inhibition Zone (mm) C. albicans: -: no activity; details: for Inhibition Zone (mm) C. albicans: 0.1 mL of compound in DMF, overnight incubation, mean ± SD, at least three experiments
Method: (§1) The antimicrobial activity of all newly synthesized compounds was determined using the agar cup-plate method using the Hi-Media agar medium. Xanthotoxin, tobramycin, and amphotericin B were used as reference drugs. All newly synthesized compounds were tested against two strains of Gram-positive bacteria (Bacillus subtilis ATCC 14579 and Staphylococcus aureus ATCC 25923), Gram-negative bacteria (Escherichia coli ATCC 25922), and yeast (Candida albicans ATCC 10231).
(§2) The nutrient agar medium consists of 0.3% of beef extract, 0.5% of peptone, 0.1% dipotassium hydrogen phosphate, and 1.5% agar. Broth cultures of the organisms were prepared by incubating slant agar seeded with the organisms overnight.
(§3) The prepared broth culture (0.02 mL) was carefully added to sterile Petri dishes. Then, 10 mL of the liquefied nutrient agar medium was poured into each dish, mixed uniformly, and allowed to solidify. Using a sterilized cork borer, cups (9 mm) were scooped out of the agar media contained in the Petri dishes. Each test compound (50 mg) was dissolved in 1 mL DMF (50 mg mL^−1), which was used as a stock solution to carry out the twofold dilution technique. A fixed volume (0.1 mL) of the tested compounds dissolved in dimethylformamide (DMF) was added. Each plate contained a cup filled with DMF to disregard the effect of solvent. Additionally, two other cups were filled with tobramycin and xanthotoxin being used as reference drugs. The plates were incubated overnight to examine the antimicrobial activity. Zones of inhibition obtained by each test compound were measured in millimeters and the results are recorded in Table 2.
(§4) GraphPad Prism-version 5 (GraphPad Software, Inc., La Jolla, CA, USA) was used for statistical analysis.

[2] = system: Staphylococcus aureus ATCC 25923; assay: Antimicrobial agar cup-plate assay, S. aureus; type: cell-based; set-up: key: -: no activity; details: 0.1 mL of compound in DMF, overnight incubation, mean ± SD, at least three experiments
Method: as §1, §2, §3, §4

[3] = system: Bacillus subtilis ATCC 14579; assay: Antimicrobial agar cup-plate assay, B. subtilis; type: cell-based; details: 0.1 mL of compound in DMF, overnight incubation, mean ± SD, at least three experiments
Method: as §1, §2, §3, §4

[4] = system: Escherichia coli ATCC 25922; assay: Antimicrobial agar cup-plate assay, E. coli; type: cell-based; set-up: key to Inhibition Zone (mm) E. coli: -: no activity; details: for Inhibition Zone (mm) E. coli: 0.1 mL of compound in DMF, overnight incubation, mean ± SD, at least three experiments
Method: as §1, §2, §3, §4

[5] = system: Bacillus subtilis ATCC 14579; assay: Photosensitizing assay (MIC before and after UV irradiation, agar cup-plate); type: cell-based; details: for MIC: Bacillus subtilis, ATCC14579, light or radiation study; for photosensitizing activity against B. subtilis (in words): after 20 min of irradiation
Method: The photosensitizing activity was determined using the agar cup-plate method (described in Section 2.3) with Hi-Media agar medium. The antibacterial activity against Bacillus subtilis ATCC 14579 was measured before and after exposure to UV lamp (365 nm). The diameters of the inhibition zones were measured in mm and the results were compared with xanthotoxin. The tested organism used was Bacillus subtilis.
For the photosensitizing activity, xanthotoxin was used as a reference drug and DMF as a negative control. The minimum inhibitory concentrations (MIC) were determined using the agar cup-plate method. Each test compound (50 mg) was dissolved in 1 mL DMF (50 mg mL^−1), which was used as a stock solution to carry out the twofold dilution technique. The sample size for all the compounds was adjusted to 0.1 mL. The solution of the test compound (0.1 mL) was added to the cups. The plates were divided into test plates and duplicate plates. Before irradiation, the test plates were incubated in the dark at 37 °C for 3 h to permit the diffusion of the tested compounds through the agar layer. The duplicate plates were incubated overnight and used as a control for the determination of the antibacterial activity. The covers were removed from the test plates, and the dishes were exposed to UV lamp (365 nm) for 20 min. After irradiation, the plates were left overnight in the dark at 37 °C. MIC, the least concentration preventing visible bacterial growth, was determined in both the control and test, indicating the antibacterial and photosensitizing activity of the tested compounds, respectively.
To evaluate the significance of the difference in the results, each experiment was repeated at least three times. […] GraphPad Prism-version 5 (GraphPad Software, Inc., La Jolla, CA, USA) was used to perform statistical analysis of the results.

[6] = 20 min, B. subtilis, after irradiation with UV lamp (365 nm) for 20 min (photosensitizing activity), 100 μL per cup, read-out: MIC (mg mL^−1) Test
[7] = 20 min, B. subtilis, after irradiation with UV lamp (365 nm) for 20 min (photosensitizing activity), read-out: MIC (mM) Test
[8] = B. subtilis, without irradiation (antibacterial activity), 100 μL per cup, read-out: MIC (mg mL^−1) Control
[9] = B. subtilis, without irradiation (antibacterial activity), read-out: MIC (mM) Control

Structure (SMILES) | melting point [°C] | Inhibition Zone (mm) C. albicans [1] | Inhibition Zone (mm) S. aureus [2] | Inhibition Zone (mm) B. subtilis [3] [mm] | antibacterial activity against E. coli (in words) [4] | Inhibition Zone (mm) E. coli [4] | MIC [5, 6] [µg/mL] | MIC [5, 7] [mM] | MIC [5, 8] [µg/mL] | MIC [5, 9] [mM] | photosensitizing activity against B. subtilis (in words) [5] | antifungal activity against C. albicans (in words) [1] | MIC (mM) Test ([5]; B. subtilis, after irradiation with UV lamp (365 nm) for 20 min (photosensitizing activity)) [mM] | MIC (mg mL^−1) Test ([5]; B. subtilis, after irradiation with UV lamp (365 nm) for 20 min (photosensitizing activity), 100 μL per cup) [µg/mL] | MIC (mM) Control ([5]; B. subtilis, without irradiation (antibacterial activity)) [mM] | MIC (mg mL^−1) Control ([5]; B. subtilis, without irradiation (antibacterial activity), 100 μL per cup) [µg/mL]
C[C@@H]1[C@H](O)[C@@H](C)/C=C/C=C/C=C/C=C/C=C/C=C/C=C/[C@H](O[C@@H]2O[C@H](C)[C@@H](O)[C@H](N)[C@@H]2O)C[C@@H]2O[C@](O)(C[C@@H](O)C[C@@H](O)[C@H](O)CC[C@@H](O)C[C@@H](O)CC(=O)O[C@H]1C)C[C@H](O)[C@H]2C(=O)O [Amphotercin B, amphotericin B, reference compound] |  | 14 ± 1.414 mm |  |  |  |  |  |  |  |  |  |  |  |  |  | 
CCc1cc2c(C)cc(=O)oc2cc1OC(C)C(C)=O (centres unmarked) [Compound 2a, 6-Ethyl-4-methyl-7-(3-oxobutan-2-yloxy)-2H-1-benzopyran-2-one] | 95 to 97 | 11 ± 0.8165 mm | 14 ± 1.414 mm | 15 ± 1.414 | inactive | - | 6250 | 22.8 | 6250 | 22.8 |  |  |  |  |  | 
CCc1cc2c(-c3ccccc3)cc(=O)oc2cc1OC(C)C(C)=O (centres unmarked) [Compound 2b, 6-Ethyl-7-(3-oxobutan-2-yloxy)-4-phenyl-2H-1-benzopyran-2-one] | 100 to 102 | 15 ± 1.414 mm | 22 ± 1.414 mm | 14 ± 0.8165 | inactive | - | 6250 | 18.6 | 6250 | 18.6 |  |  |  |  |  | 
CCc1cc2c(C)cc(=O)oc2c2c(C)c(C)oc12 [Compound 3a, 9-Ethyl-2,3,7-trimethyl-5H-furo[2,3-h]benzopyran-5-one] | 199 to 201 | 16 ± 0.8165 mm | 30 ± 1.414 mm | 20 ± 0.8165 |  | 15 ± 1.414 mm | 780 | 3.04 | 780 | 3.04 | without any photosensitizing activity |  |  |  |  | 
CCc1cc2c(-c3ccccc3)cc(=O)oc2c2c(C)c(C)oc12 [Compound 3b, 2,3-Dimethyl-9-ethyl-7-phenyl-5H-furo[2,3-h]benzopyran-5-one] | 90 to 92 | 15 ± 1.414 mm | 22 ± 0.8165 mm | 10 ± 1.414 |  | 16 ± 1.414 mm | 3120 | 9.82 | 3120 | 9.82 | without any photosensitizing activity |  |  |  |  | 
CCc1cc2c(C)cc(=O)oc2c2c3c(oc12)CCCC3 [Compound 5a, 6-Ethyl-4-methyl-8,9,10,11-tetrahydro-2H-benzofuro[2,3-h]benzopyran-2-one] |  | 18 ± 0.8165 mm | 30 ± 0.8165 mm | 22 ± 0.8165 |  | 16 ± 1.414 mm | 780 | 2.76 | 3120 | 11.1 |  |  |  |  |  | 
NC[C@H]1O[C@H](O[C@H]2[C@H](O)[C@@H](O[C@H]3O[C@H](CO)[C@@H](O)[C@H](N)[C@H]3O)[C@H](N)C[C@@H]2N)[C@H](N)C[C@@H]1O [Tobramycin, reference compound] |  |  | 21 ± 0.8165 mm |  |  | 20 ± 1.414 mm |  |  |  |  |  |  |  |  |  | 
COc1c2occc2cc2ccc(=O)oc12 [Xanthotoxin, reference compound] |  | 15 ± 0.8165 mm | - | 13 ± 0.8165 |  | 25 ± 0.8165 mm |  |  |  |  |  |  | 6.94 | 1500 | 57.82 | 12500

Continued, in another order:

melting point [°C] | Structure (SMILES) | Inhibition Zone (mm) C. albicans [1] | Inhibition Zone (mm) S. aureus [2] | Inhibition Zone (mm) B. subtilis [3] [mm] | antibacterial activity against E. coli (in words) [4] | Inhibition Zone (mm) E. coli [4] | MIC [5, 6] [µg/mL] | MIC [5, 7] [mM] | MIC [5, 8] [µg/mL] | MIC [5, 9] [mM] | photosensitizing activity against B. subtilis (in words) [5] | antifungal activity against C. albicans (in words) [1] | MIC (mM) Test ([5]; B. subtilis, after irradiation with UV lamp (365 nm) for 20 min (photosensitizing activity)) [mM] | MIC (mg mL^−1) Test ([5]; B. subtilis, after irradiation with UV lamp (365 nm) for 20 min (photosensitizing activity), 100 μL per cup) [µg/mL] | MIC (mM) Control ([5]; B. subtilis, without irradiation (antibacterial activity)) [mM] | MIC (mg mL^−1) Control ([5]; B. subtilis, without irradiation (antibacterial activity), 100 μL per cup) [µg/mL]
160 to 162 | CCc1cc2c(C)cc(=O)oc2cc1OC1CCCCC1=O (centres unmarked) [Compound 4a, 6-Ethyl-4-methyl-7-(2-oxocyclohexyloxy)-2H-1-benzopyran-2-one] | 18 ± 1.414 mm | 24 ± 1.414 mm | 15 ± 0.8165 | inactive | - | 780 | 2.6 | 3120 | 10.4 |  |  |  |  |  | 
150 to 152 | CCc1cc2c(-c3ccccc3)cc(=O)oc2cc1OC1CCCCC1=O (centres unmarked) [Compound 4b, 6-Ethyl-7-(2-oxocyclohexyloxy)-4-phenyl-2H-1-benzopyran-2-one] | 14 ± 1.414 mm | 29 ± 0.8165 mm | 17 ± 0.8165 | inactive | - | 3120 | 8.62 | 3120 | 8.62 |  |  |  |  |  | 
108 to 110 | CCc1cc2c(-c3ccccc3)cc(=O)oc2c2c3c(oc12)CCCC3 [Compound 5b, 6-Ethyl-4-phenyl-8,9,10,11-tetrahydro-2H-benzofuro[2,3-h]benzopyran-2-one] | - | 26 ± 0.8165 mm | 22 ± 1.414 |  | - | 780 | 2.26 | 3120 | 9.07 |  | inactive |  |  |  | 
120 to 122 | CCc1cc2c(C)cc(=O)oc2c2c1oc1ccccc12 [Compound 6a, 6-Ethyl-4-methyl-2H-benzofuro[2,3-h]benzopyran-2-one] | 21 ± 0.8165 mm | 30 ± 1.414 mm | 20 ± 1.414 |  | 23 ± 1.414 mm | 390 | 1.4 | 3120 | 11.2 |  |  |  |  |  | 
120 to 122 | CCc1cc2c(-c3ccccc3)cc(=O)oc2c2c1oc1ccccc12 [Compound 6b, 6-Ethyl-4-phenyl-2H-benzofuro[2,3-h]benzopyran-2-one] | 15 ± 1.414 mm | 30 ± 1.414 mm | 22 ± 1.414 |  | 17 ± 1.414 mm | 1500 | 4.41 | 3120 | 9.18 |  |  |  |  |  | 
